Biological target: Low molecular weight phosphotyrosine protein phosphatase (Homo sapiens) (UniProt P24666)
Assay: LMPTP phosphatase inhibitors, dose response, biochemical, OMFP substrate, fluorescence intensity, set 2 (AID 743307)
Conditions: LMPTP-A enzyme, OMFP fluorogenic substrate

Low molecular weight phosphotyrosine protein phosphatase (Homo sapiens), sequence (P24666 whole entry, looked up): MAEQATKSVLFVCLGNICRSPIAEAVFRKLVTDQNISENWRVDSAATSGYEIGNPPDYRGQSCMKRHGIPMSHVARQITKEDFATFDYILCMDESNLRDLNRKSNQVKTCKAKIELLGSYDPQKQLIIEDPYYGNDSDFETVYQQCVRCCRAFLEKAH

IC50: 1680 nM
SMILES: COc1ccc(-c2cc(NCCCN3CCCCC3)c3ccccc3n2)cc1
